In patent US20100112040A1, “Preparation of Heavy Metal-Containing Nano-Liposomes and their Uses in Medical Therapy” (S.B. BIOTECHNOLOGIES LTD., priority 2006, published 2010):
Like-named read-outs stand apart in the source and are kept apart here.

Tests used:
[1] = 200 μl i.p., 2 mg of gold/ml
Method: (§1) Balb/C mice which had tumors on their thighs (KHJJ line, breast cancer) were used in these experiments. The mice were injected i.p. with 200 μl of liposomes containing 2 mg of gold atoms per/ml solution, and after 24 hours the animals were dissected and various internal organs were harvested, which included the tumor, brain, heart, lungs, spleen, liver, kidneys, and blood. The organs were rinsed and prepared for ICP-MS analysis. In control experiments, mice were injected with a solution containing 2 mg of gold/ml without confinement in liposomes.

[2] = 200 μl i.p. of 2 mg/ml gold, 24 hours
Method: as §1
1. A solution of gold chloride of 2 mg/ml (2000). The gold was not confined in liposomes. 2. A gold-containing liposome solution (2000) of gold content of 2 mg/ml.

[Cl][Au]([Cl])[Cl] [gold chloride solution, gold chloride]
survival of injected mice (toxicity of gold) [1]: died after 24 hours | Gold atoms per cell ([2]; Bladder): 1.30E+10 atoms per cell | Gold atoms per cell ([2]; Blood): 1.37E+08 atoms per cell | Gold atoms per cell ([2]; Brain): 1.62E+07 atoms per cell | Gold atoms per cell ([2]; Heart): 1.63E+09 atoms per cell | Gold atoms per cell ([2]; Kidneys): 1.58E+09 atoms per cell | Gold atoms per cell ([2]; Liver): 1.88E+08 atoms per cell | Gold atoms per cell ([2]; Lungs): 1.36E+08 atoms per cell | Gold atoms per cell ([2]; Spleen): 3.34E+08 atoms per cell | Gold atoms per cell ([2]; Tumor): 1.10E+08 atoms per cell
